In patent US12606543B2, “Indole derivatives as serotonergic agents useful for the treatment of disorders related thereto” (priority 2023, dated 2026):

Columns and labels:
[1] = Plasma protein binding by equilibrium dialysis, mouse; assay type: in vitro ADME; settings: for recovery at 6 h, 1 µM: CD-1, mouse, plasma
Protocol: (§1) The final concentration of compound was 1 μM. The final concentration of DMSO was 0.5%. Ketoconazole was used as positive control in the assay.
(§2) The assay was performed in duplicate.
(§3) All calculations were carried out using Microsoft Excel. […] The percentages of bound compound were calculated as follows: […]
(§4) Ketoconazole was used as positive control in the assay.

[2] = Plasma protein binding by equilibrium dialysis, human; assay type: in vitro ADME; settings: for recovery at 6 h, 1 µM / fraction unbound at 6 h, 1 μM: human, plasma; for fraction unbound at 6 h, 1 μM: read-out: % Bound (converted)
Protocol: as §1, §2, §3, §4

[3] = Plasma protein binding by equilibrium dialysis, dog; assay type: in vitro ADME; settings: for recovery at 6 h, 1 µM: dog
Protocol: as §1, §2, §3, §4

[4] = Plasma protein binding by equilibrium dialysis, rat
Protocol: 1. The Frozen Plasma (Stored at −80° C.) was Thawed Immediately in a 37° C. Water Bath.
(§5) The working solution of test compounds and control compound was prepared in DMSO at the concentration of 200 μM, and then the working solution was spiked into plasma. The final concentration of compound was 1 μM. The final concentration of DMSO was 0.5%. Ketoconazole was used as positive control in the assay.
The dialysis membranes were soaked in ultrapure water for 60 minutes to separate strips, then in 20% ethanol for 20 minutes, finally in dialysis buffer for 20 minutes.
The dialysis set up was assembled according to the manufacturer's instruction. Each Cell was with 150 μL of plasma sample and dialyzed against equal volume of dialysis buffer (PBS). The assay was performed in duplicate. The dialysis plate was sealed and incubated in an incubator at 37° C. with 5% CO2 at 100 rpm for 6 hours. At the end of incubation, 50 μL of samples from both buffer and plasma chambers were transferred to wells of a 96-well plate.
50 μL of plasma was added to each buffer samples and an equal volume of PBS was supplemented to the collected plasma sample. 400 μL of precipitation buffer acetonitrile containing internal standards (IS, 200 nM labetalol, 100 nM tolbutamide and 100 nM ketoprofen) was added to precipitate protein and release compounds. Samples were vortexed for 2 minutes and centrifuged for 30 minutes at 3,220 g. Aliquot of 50 μL of the supernatant was diluted by 150 μL acetonitrile containing internal standards: ultra-pure H2O=1:1, and the mixture was used for LC-MS/MS analysis.
All calculations were carried out using Microsoft Excel. The concentrations of test compounds in the buffer and plasma chambers were determined from peak area ratios. The percentages of bound compound were calculated as follows: […]
as §5, with “[…].” for “μM.”

[5] = mouse plasma, equilibrium dialysis, 37° C., 6 hours
[6] = human plasma, equilibrium dialysis, 37° C., 6 hours

CC(=O)N1CCN(c2ccc(OCC3COC(Cn4ccnc4)(c4ccc(Cl)cc4Cl)O3)cc2)CC1 (stereo not shown) [Ketoconazole, reference compound]
recovery at 6 h, 1 µM ([1]; Mouse plasma, 1 μM, equilibrium dialysis 6 hours): 109%
recovery at 6 h, 1 µM [1, 5]: 94.7%
fraction unbound at 6 h, 1 μM ([1]; CD-1, Mouse plasma, 1 μM, equilibrium dialysis 6 hours, 37° C., read-out: % Bound (converted)): 0.0068
% Remaining @ 6 hours ([1]; Mouse plasma, 1 μM, 6 hours, 37° C.): 103.60%
% Remaining @ 6 hours ([1]; mouse plasma, 6 hours): 108.54%
% Bound [1, 5]: 99.32%
% Remaining @ 6 hours ([2]; Human plasma, 1 μM, 6 hours, 37° C.): 114.03%
% Remaining @ 6 hours ([2]; human plasma, 6 hours): 99.64%
recovery at 6 h, 1 µM ([2]; Human plasma, 1 μM, equilibrium dialysis 6 hours): 112%
fraction unbound at 6 h, 1 μM ([2]; Human plasma, 1 μM, equilibrium dialysis 6 hours, 37° C.): 0.0088
recovery at 6 h, 1 µM [2, 6]: 101%
fraction unbound at 6 h, 1 μM [2, 6]: 0.0076
recovery at 6 h, 1 µM ([3]; Beagle, Dog plasma, 1 μM, equilibrium dialysis 6 hours): 87.2%
recovery at 6 h, 1 µM ([3]; Beagle, dog plasma, equilibrium dialysis, 37° C., 6 hours): 86.1%
fraction unbound at 6 h, 1 μM ([3]; Beagle, dog plasma, equilibrium dialysis, 37° C., 6 hours, read-out: % Bound (converted)): 0.0105
% Remaining @ 6 hours ([3]; Dog plasma, 1 μM, 6 hours, 37° C.): 92.22%
% Remaining @ 6 hours ([3]; dog plasma, 6 hours): 87.36%
% Remaining @ 6 hours ([4]; Rat plasma, 1 μM, 37° C.): 101.20%
recovery at 6 h, 1 µM ([4]; SD, rat): 105%
recovery at 6 h, 1 µM ([4]; Sprague-Dawley (SD), rat): 101%
fraction unbound at 6 h, 1 μM ([4]; Sprague-Dawley, rat, plasma): 0.0045
% Remaining @ 6 hours ([4]; rat plasma): 109.42%
